Measured values taken from patent US20230183750A1, “HDR ENHANCERS” (OXFORD GENETICS LIMITED, priority 2020, published 2023).

Tests used:
[1] = system: HEK293 reporter cell line; experiment: CRISPR/Cas9-based HDR assay (wtCas9 RNP, ssOligo donor, EGFP positive cells by FACS); format: cell-based, human; settings: for HDR efficiency, single small molecule (FIG. 4): Example 4, first set of experiments, compared to no compound; for HDR efficiency in the initial screen with wtCas9: fold change compared to Cas9 alone, ≥20% increase (fold change ≥1.2) = positive influencer; for optimal concentration selected for further experiments: from the HDR dose dependency experiment; for dose dependency of HDR efficiency (FIG. 3): three concentrations (low, medium, high) per inhibitor; for concentration with the highest HDR efficiency: tested at 5, 10, 20 μM
Method: More specifically, an HDR assay using a HEK reporter cell line containing truncated EGFP may be used. These cells may be transfected with a transfection complex containing the CRISPR endonuclease and a donor sequence. Cas9 RNPs may be prepared by following the manufacturers' guidelines. The transfection complex may be prepared by adding Cas9 RNP or Cas9 nickase RNP, along with ssOligo donor and lipofectamine 2000 in Optimem. Reagents should be mixed well and incubated for 20 mins. After 20 mins, 50 μl of transfection complex (at an optimal concentration—see the Examples herein) may be transferred in a 96 well plate and 50 μl HEK293 reporter cell line suspension (9×10^5 cells/ml) added followed by 50 μl of cell culture medium containing appropriate concentration(s) of inhibitor(s). Cells may be incubated at 37° C. in a CO2 incubator for 24 hours and then inhibitor-containing media should be replaced with fresh media without inhibitor. Cells are then further incubated for 48 hours. After 48 hours, cells may be trypsinized and resuspended in PBS containing 10% FBS. Samples may be run on FACS and the percentage of EGFP in the population measured. Presence of EGFP directly correlates with HDR efficiency.
To investigate whether a knock-in truncated in HEK293 reporter cell line could be corrected by homology dependent repair, a CRISPR/Cas9-based HDR assay was used. We used ssODN as a donor template to correct the EGFP sequence and to restore functionality as ssODNs are known to be more efficient compared to the double-stranded donor for HDR based DNA repair. Briefly, cells were transfected with a wtCas9 ribonucleoprotein complex along with an oligo donor for restoring EGFP functionality. Cells were analysed by FACS 72 hours post-transfection (FIGS. 2A and 2B).
To identify the small molecules which would increases the HDR efficiency, we carried out experiments using the engineered HEK293 reporter cell line, ss-donor and wtCas9 in the presence of the inhibitors identified in Example 2. Briefly, in vitro reconstituted wtCas9 RNP with gRNA-X1 was transfected into the cells along with ssOligo donor (50 nM) in presence of the inhibitors. Inhibitor containing media was replaced with fresh media after 24 hours and cells were further incubated for 48 hours. After 48 hours cells were trypsinized and resuspended in 10% FBS containing PBS and analysed by FACS.
To understand whether increase in HDR is related to dose response, we carried out the HDR assay using three different concentrations of selected inhibitors as shown in the table below.
To investigate whether HDR efficiency would increase further by using the top hit small molecule combinations, we performed experiments using small molecule combinations for wtCas9. These combinations were selected using Design of Experiment (DoE) software. These combination experiments were carried out in 2 sets: the first set was performed in the absence of NU7441 (a known HDR enhancer); and the second set was performed in the presence of NU7441. […] In the second set of experiments, in the presence of NU7441, further increases (˜2fold) in HDR efficiency were observed compared to no NU7441 (FIG. 4). […]

HEK reporter cell line = experiment: cell-viability assay using alamar blue reagent; format: cell-based, human; settings: 72 hours
Method: To investigate the effect of this library on HDR efficiency and to identify novel molecules which would increase the HDR mediated gene editing efficiency, first we carried out a cell-viability assay using the HEK reporter cell line and alamar blue reagent. The experiment was performed to rule out any toxicity associated with the small molecule library. Briefly, 3 different concentration of inhibitors (0.1 μM, 1 μM and 10 μM) were added in the cells in a 96 well plate format and plates were incubated for 72 hours. After 72 hours, the media were replaced with alamar blue containing media and the plates were further incubated for 3 hours and then read on a Fluorstar omega plate reader. The table gives the results obtained with the subsequently-selected inhibitors, together with a range of other potential inhibitors.

SMILES | HDR efficiency, single small molecule (FIG. 4) ([1]; wtCas9) | HDR efficiency at high concentration (FIG. 3) ([1]; concentration of 0.2 μM, wtCas9) | HDR efficiency in the initial screen with wtCas9 [1] | optimal concentration selected for further experiments ([1]; wtCas9) [µM] | % survival (HEK reporter cell line; 0.1 μM inhibitor) [%] | % survival (HEK reporter cell line; 1 μM inhibitor) [%] | % survival (HEK reporter cell line; 10 μM inhibitor) [%] | further increase in HDR efficiency in the presence of NU7441 compared to no NU7441 (FIG. 4) ([1]; Example 4, second set of experiments, wtCas9) [fold] | HDR efficiency at high concentration (FIG. 3) ([1]; concentration of 2 μM, wtCas9) | dose dependency of HDR efficiency (FIG. 3) ([1]; wtCas9) | concentration with the highest HDR efficiency ([1]; wtCas9) [µM]
O=C(Nc1c[nH]nc1-c1nc2cc(CN3CCOCC3)ccc2[nH]1)NC1CC1 [AT9283] | increase in HDR efficiency | moderated decreases in HDR efficiency | increase the HDR efficiency | 0.05 | 81.49 ± 3.59 | 69.69 ± 1.2 | 7.1 ± 0.06 | – | – | – | –
Cc1cc(CN2CCN(c3c(Br)cnc4nc(-c5ccc(N6CCN(C)CC6)cc5)[nH]c34)CC2)no1 [CCT137690] | – | – | – | – | 105.48 ± 3.94 | 63.37 ± 2.12 | −0.08 ± 0.1 | – | – | – | –
O=c1cc(N2CCOCC2)oc2c1ccc1ccccc12 [NU7026] | – | – | increase the HDR efficiency | – | 100.08 ± 4.01 | 100.14 ± 4.13 | 83.17 ± 1.44 | – | – | – | –
O=c1cc(N2CCOCC2)oc2c(-c3cccc4c3sc3ccccc34)cccc12 [NU7441] | increase in HDR efficiency | – | increase the HDR efficiency | 1 | 103.58 ± 4.44 | 88.88 ± 3.55 | 22.95 ± 0.98 | ~2 | moderate increases | highest HDR efficiency | –
O=C([C@H](Cc1cccc(C(F)(F)F)c1)NS(=O)(=O)c1cc(F)c2c(c1)CCNC2)N1CCCC1 [S-PFI-2] | increase in HDR efficiency | – | increase the HDR efficiency | 20 | 99.98 ± 3.25 | 115.11 ± 2.47 | 94.25 ± 8.54 | – | – | dose-dependent increases in HDR efficiency | 20
O=C1NC(=O)/C(=C/c2cccc(C(F)(F)F)c2)S1 [SMI-4a] | increase in HDR efficiency | – | increase the HDR efficiency | 20 | 105.2 ± 0.07 | 103.18 ± 5.38 | 99.85 ± 1.22 | – | – | dose-dependent increases in HDR efficiency | 20
CCS(=O)(=O)c1cccc(-c2cc(C(=O)NC3CCN(C)CC3)c(C)c3[nH]c4ncc(C)cc4c23)c1 [TAK-901] | – | – | – | – | 88.9 ± 1.18 | 36.24 ± 0.88 | 5.65 ± 0.08 | – | – | – | –
